This is an account of results in patent US7202239B2, “Cyclohexylphenyl carboxamides tocolytic oxytocin receptor antagonists” (Wyeth, priority 2001, dated 2007).

The term IC50 denotes the concentration that gives 50% inhibition. The term inhibition denotes the drop in the measured response relative to a control, in per cent.

The target of this assay is T1, human oxytocin receptor (Homo sapiens, UniProt P30559).
T1 sequence (P30559 1-389): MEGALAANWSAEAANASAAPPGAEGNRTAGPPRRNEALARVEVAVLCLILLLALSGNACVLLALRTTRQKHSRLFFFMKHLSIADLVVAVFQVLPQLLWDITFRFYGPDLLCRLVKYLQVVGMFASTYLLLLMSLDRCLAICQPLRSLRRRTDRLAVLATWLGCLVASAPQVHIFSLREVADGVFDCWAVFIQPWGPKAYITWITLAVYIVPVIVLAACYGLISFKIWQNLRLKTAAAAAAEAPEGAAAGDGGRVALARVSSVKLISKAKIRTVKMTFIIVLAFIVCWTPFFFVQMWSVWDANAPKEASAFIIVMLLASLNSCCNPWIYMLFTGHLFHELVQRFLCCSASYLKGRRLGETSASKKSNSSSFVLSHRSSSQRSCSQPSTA
Put plainly: Oxytocin binding in CHO cell membranes expressing human oxytocin receptors. To be noted: [3H]oxytocin; for IC50: value in parentheses, read-out: OT (IC50); for inhibition at 0.1 µM / OT % inhibition at 100 nM: 100 nM; for inhibition at 0.1 µM: read-out: OT % inhibition at 100 nM. The source says:
Oxytocin Binding in Chinese Hamster Ovary Cell Membranes Expressing Human Oxytocin Receptors
Chinese Hamster Ovary (CHO) cells stably transfected with the human oxytocin receptor (cf. Tanizawa et al., U.S. Pat. No. 5,466,584 (1995) to Rohto Pharmaceutical Co. Ltd., Osaka, Japan) were obtained from M. Thibonnier, Case Western Reserve University School of Medicine, Cleveland, Ohio. A. Passaging and Amplification of Cells: CHO cells transfected with the human oxytocin receptors obtained from M. Thibonnier (pcDNA3.1 vector) are allowed to grow to confluency (approx. >90%) in T-150 flasks under sterile conditions, in a cell culture medium of F-12 Nutrient Mixture (HAM) with L-glutamine (Gibco Cat. # 11765-054) containing 15 mM HEPES (Gibco Cat. # 15630-080), 1% antibiotic/antimycotic (add 5 mL 100×, Gibco Cat. # 15240-062 per 500 mL F-12), 400 μg/mL of Geneticin (add 4 mL of 50 mg/mL per 500 mL F-12) and 10% Fetal Bovine Serum (Qualified, heat inactivated, Gibco Cat. # 16140-063). The medium is removed by aspiration and the cells are washed with 10 mL of Hank's Balanced Salt solution (Gibco Cat. # 14175-095). The salt solution is removed by aspiration and the cells trypsinized with 5 mL of trypsin-EDTA (0.05% trypsin, 0.53 mM EDTA-4Na, Gibco Cat. # 25300-070) for 1 min The trypsin is removed by aspiration and the cells dislodged by tapping. Cell Culture medium (e.g. 30 mL for 1:30 split) is immediately added and mixed well to inactivate trypsin. 1 mL of detached cells is added to new culture flasks containing fresh Cell Culture medium (e.g. into 25 mL per T-150 flask), and mixed gently. The cells are incubated at 37° C. in 5% CO2. The medium is changed at 3 to 4 days interval (or as appropriate). The cells grow to confluency (approx. >75%–95%) within 7–8 days. All steps are done under sterile conditions. B. Membrane Preparation: The cells are washed twice gently with Hank's Balanced Salt solution (eg, use 10 mL per T-150 flask). The excess solution is removed and the cells bathed for 15–30 min. in an enzyme-free Cell Dissociation Buffer (eg, use 8 mL Hank's Based, Gibco Cat. # 13150-016 per T-150 flask) until cells are loosened. The contents are transferred to centrifuge tubes (50 mL size) kept in ice bath. All subsequent steps are done at 4° C. The tubes are centrifuged at 300×g for 15 min (1380 rpm on SORVAL, Model RT6000D, using rotor for 50 mL tubes). The supernatant is discarded and the cells suspended in homogenizing buffer (10 mM Tris-HCl containing 0.25 M sucrose and 1 mM EDTA, pH 7.4) ensuring that the volume of the buffer is about ten times the volume of the cell pellet. The cells are pooled into a centrifuge tube (50 mL) and homogenized with a Polytron at setting 6 for 10 sec. The homogenate is transferred into a Potter-Elvjehm homogenizer and homogenized with 3 strokes. The homogenate is centrifuged at 1500×g for 10 min at 4° C. (3100 rpm using SORVAL, model RT6000D, using rotor for 50 mL tubes). The pellet is discarded. The supernatant is centrifuged at 100,000×g for 60 min. at 4° C. (Beckman L8-80M ultracentrifuge; spin at 37,500 rpm with rotor type 70 Ti for 50 mL tubes; 38,000 rpm with type 80Ti for 15 mL tubes; or 35,800 rpm with rotor type 45Ti). The supernantant is discarded and the pellet suspended in 3 to 4 mL of Tris buffer (50 mM TRIS-HCl, pH 7.4). The protein content is estimated by the Bradford or Lowry method. The volume of the membrane suspension is adjusted with the membrane buffer (50 mM Tris-HCl containing 0.1% BSA and 0.1 mM PMSF) to give 3.0 mg/mL (or as appropriate) of protein. The membranes are aliquoted and stored at −70° C. C. Radioligand Binding Assay: In wells of a 96-well format microtiter plate, is added 90, 110 or 130 μL (to make up a final volume of 200 μL) of assay buffer containing 50 mM of Tris-HCl (pH 7.4), […], 1 mg % aprotinin, 1 mg % leupeptin, 2 mg % 1,10-phenanthroline, 10 mg % trypsin inhibitor, and 0.1 mM PMSF. […]

For `CN1CCN(C(=O)c2ccc3n2Cc2ccccc2N(C(=O)c2ccc(C4CCCCC4)cc2)C3)CC1` [Example 24, [10-(4-Cyclohexyl-benzoyl)-10,11-dihydro-5H-pyrrolo[2,1-c][1,4]benzodiazepin-3-yl](4-methyl-1-piperazinyl)-methanone], the IC50 was 18.3 nM. The same measure, in the same setting: the result for `O=C(c1ccc2n1Cc1ccccc1N(C(=O)c1ccc(C3CCCCC3)cc1)C2)N1CCC(N2CCCC2)CC1` [Example 25, [10-(4-Cyclohexyl-benzoyl)-10,11-dihydro-5H-pyrrolo[2,1-c][1,4]benzodiazepin-3-yl][4-(1-pyrrolidinyl)-1-piperidinyl]methanone] reads 13.2 nM; that for `O=C(c1ccc2n1Cc1ccccc1N(C(=O)c1ccc(C3CCCCC3)cc1)C2)N1CCC(N2CCCCC2)CC1` [Example 26, [1,4′]Bipiperidinyl-1′-yl-[10-(4-cyclohexyl-benzoyl)-10,11-dihydro-5H-pyrrolo[2,1-c][1,4]benzodiazepin-3-yl]-methanone], 19.7 nM.

Regarding `Cc1ccccc1N1CCN(C(=O)c2ccc3n2Cc2ccccc2N(C(=O)c2ccc(C4CCCCC4)cc2)C3)CC1` [Example 27, [10-(4-Cyclohexyl-benzoyl)-10,11-dihydro-5H-pyrrolo[2,1-c][1,4]benzodiazepin-3-yl][4-(2-methylphenyl)-1-piperazinyl]-methanone], the inhibition at 0.1 µM turned out to be 44%. For `O=C(c1ccc2n1Cc1ccccc1N(C(=O)c1ccc(C3CCCCC3)cc1)C2)N1CCN(c2ccccn2)CC1` [Example 28, [10-(4-Cyclohexyl-benzoyl)-10,11-dihydro-5H-pyrrolo[2,1-c][1,4]benzodiazepine 3-yl][4-(2-pyridinyl)-1-piperazinyl]-methanone], the IC50 came out at 111 nM.

For the molecule `COc1ccc(NC(=O)c2ccc3n2Cc2ccccc2N(C(=O)c2ccc(C4CCCCC4)cc2)C3)cc1` [Example 29, 10-(4-Cyclohexyl-benzoyl)-10,11-dihydro-5H-pyrrolo[2,1-c][1,4]benzodiazepine-3-carboxylic acid (4-methoxy-phenyl)-amide], the inhibition at 0.1 µM is 42%. The same measure, in the same setting: the result for `CN1CCCN(C(=O)c2ccc3n2Cc2ccccc2N(C(=O)c2ccc(C4CCCCC4)cc2)C3)CC1` [Example 30, [10-(4-Cyclohexyl-benzoyl)-10,11-dihydro-5H-pyrrolo[2,1-c][1,4]benzodiazepin-3-yl](4-methyl-[1,4]-diazepan-1-yl)-methanone] reads 94%. With `O=C(C(=O)N1CCC(N2CCCCC2)CC1)c1ccc2n1Cc1ccccc1N(C(=O)c1ccc(C3CCCCC3)cc1)C2` [Example 31, 1-[1.4′]Bipiperidinyl-1′-yl-2-[10-(4-cyclohexyl-benzoyl)-10,11-dihydro-5H-pyrrolo[2,1-c][1,4]benzodiazepin-3-yl]-ethane-1,2-dione], the “OT % inhibition at 100 nM” value is 89%. The same measure, in the same setting: the result for `CN1CCN(C(=O)C(=O)c2ccc3n2Cc2ccccc2N(C(=O)c2ccc(C4CCCCC4)cc2)C3)CC1` [Example 32, 1-[10-(4-Cyclohexyl-benzoyl)-10,11-dihydro-5H-pyrrolo[2,1-c][1,4]benzodiazepin-3-yl]-2-(4-methyl-1-piperazin-1-yl)-1,2-ethane-1,2-dione] reads 87%. Consider `CN(C)CCCNC(=O)c1ccc2n1Cc1ccccc1N(C(=O)c1ccc(C3CCCCC3)cc1)C2` [Example 33, 10-(4-Cyclohexyl-benzoyl)-N-[3-(dimethylamino)propyl]-10,11-dihydro-5H-pyrrolo[2,1-c][1,4]benzodiazepine-3-carboxamide], for which the inhibition at 0.1 µM worked out at 66%. On the same count and under the same terms, the same measure for `CN(C)CCN(C)C(=O)c1ccc2n1Cc1ccccc1N(C(=O)c1ccc(C3CCCCC3)cc1)C2` [Example 34, 10-(4-Cyclohexyl-benzoyl)-N-[2-(dimethylamino)-ethyl]-N-methyl-10,11-dihydro-5H-pyrrolo[2,1-c][1,4]benzodiazepine-3-carboxamide]: -5%.

As to `CN(C)CCCN(C)C(=O)c1ccc2n1Cc1ccccc1N(C(=O)c1ccc(C3CCCCC3)cc1)C2` [Example 35, 10-(4-Cyclohexyl-benzoyl)-N-[3-(dimethylamino)propyl]N-methyl-10,11-dihydro-5H-pyrrolo[2,1-c][1,4]benzodiazepine-3-carboxamide], the inhibition at 0.1 µM was found to be 55%.

With `O=C(NCCCn1ccnc1)c1ccc2n1Cc1ccccc1N(C(=O)c1ccc(C3CCCCC3)cc1)C2` [Example 36, 10-(4-Cyclohexyl-benzoyl)-N-[3-(1H-imidazol-1-yl)propyl]-10,11-dihydro-5H-pyrrolo[2,1-c][1,4]benzodiazepine-3-carboxamide], the inhibition at 0.1 µM was determined as 13%. Same read-out and setting: the result for `O=C(NCCN1CCCCC1)c1ccc2n1Cc1ccccc1N(C(=O)c1ccc(C3CCCCC3)cc1)C2` [Example 37, 10-(4-Cyclohexyl-benzoyl)-N-[2-(1-piperidinyl)ethyl]-10,11-dihydro-5H-pyrrolo[2,1-c][1,4]benzodiazepine-3-carboxamide] reads 61%; that for `CN1CCCC1CCNC(=O)c1ccc2n1Cc1ccccc1N(C(=O)c1ccc(C3CCCCC3)cc1)C2` (stereo not drawn) [Example 38, 10-(4-Cyclohexyl-benzoyl)-N-[2-(1-methyl-2-pyrrolidinyl)ethyl]-10,11-dihydro-5H-pyrrolo[2,1-c][1,4]benzodiazepine-3-carboxamide], 57%.

As for `CN1CCC(N(C)C(=O)c2ccc3n2Cc2ccccc2N(C(=O)c2ccc(C4CCCCC4)cc2)C3)CC1` [Example 39, 10-(4-Cyclohexyl-benzoyl)-N-methyl-N-(1-methyl-4-piperidinyl)-10,11-dihydro-5H-pyrrolo[2,1-c][1,4]benzodiazepine-3-carboxamide], the inhibition at 0.1 µM amounted to 85%. Still for that read-out and setting: the same measure for `CN1CCC(N(C)C(=O)c2ccc3n2Cc2ccccc2N(C(=O)c2ccc(C4CCCCC4)cc2)C3)C1` (stereo not drawn) [Example 40, 10-(4-Cyclohexyl-benzoyl)-N-methyl-N-(1-methyl-3-pyrrolidinyl)-10,11-dihydro-5H-pyrrolo[2,1-c][1,4]benzodiazepine-3-carboxamide]: 60%. Same read-out and setting: the result for `CN(C)CCN1CCN(C(=O)c2ccc3n2Cc2ccccc2N(C(=O)c2ccc(C4CCCCC4)cc2)C3)CC1` [Example 41, [10-(4-Cyclohexyl-benzoyl)-10,11-dihydro-5H-pyrrolo[2,1-c][1,4]benzodiazepin-3-yl]{4-[2-(dimethylamino)ethyl]-1-piperazinyl}methanone] reads 31%.
